Laboratory results as given in patent US10252997B2, “Monocyclic compound” (Takeda Pharmaceutical Company Limited, priority 2015, dated 2019).

What was measured:
Human ACC1 = biological target: T1, Human ACC1 (Homo sapiens, UniProt Q13085); experiment: Measurement of ACC1 inhibitory activity (Malonyl-CoA produced, RapidFire-mass spectrometry); format: biochemical; conditions: 10 μM of the test compound; read-out: ACC1 inhibitory rate (%) at 10 μM
T1 construct: His6 (from vector pFAST-BacHTc; purified on Ni-NTA) (N); made in house; host or cells: SF-9 insect cells, recombinant baculovirus BAC-ACC1
Experimental: (1) Cloning of Human ACC1 Gene and Preparation of Recombinant Baculovirus
Human ACC1 gene was cloned by PCR using a human liver cDNA library (Clontech) as a template and Primer 1 and Primer 2 shown below. Primer 1 and Primer 2 were prepared by adding SalI, NotI restriction enzyme recognition sequences based on the information of the base sequence of human ACC1 gene (Genbank Accession U19822).
PCR was performed using Pyrobest DNA polymerase (TAKARA BIO INC.). The obtained PCR product was cloned to pT7 Blue vector (Novagen) and after confirmation of the base sequence, digested with restriction enzymes SalI and […]. The obtained DNA fragment was inserted into pFAST-BacHTc (Invitrogen) digested with restriction enzymes SalI and […] to give expression plasmid ACC1/pFAST-BacHTc.
Using the expression plasmid ACC1/pFAST-BacHTc and BAC-TO-BAC Baculovirus Expression System (Invitrogen), virus stock BAC-ACC1 of recombinant Baculovirus was prepared.
(2) Preparation of ACC1 Protein
SF-9 cells (Invitrogen) were inoculated to a medium (10 L) for insect cells (Sf-900IISFM medium (Invitrogen) containing 5% fetal bovine serum (Trace), 50 mg/L Gentamicin (Wako Pure Chemical Industries, Ltd.) and 0.1% Pluronic F-68 (Invitrogen)) at 1.0×10^6 cells/mL, and cultured with shaking in Wave Bioreactor (GE Healthcare) at 27° C., 20 rpm, rocking angle 100, oxygen concentration 30%.
On day 2 of the culture, recombinant Baculovirus BAC-ACC1 was added, and the cells were cultured for 3 days. The culture medium was centrifuged at 4000×g for 10 min to give virus-infected cells. The cells were washed with phosphate buffered saline (Invitrogen) and centrifuged under the same conditions. The obtained cells were cryopreserved at −80° C.
The cryopreserved cells were thawed in ice, and suspended in 800 mL of 25 mM HEPES buffer (pH 7.5) containing 10% Glycerol, 0.3 M NaCl, 1 mM EDTA, 25 mM Sodium β-Glycerophosphate and 1 mM Sodium Orthovanadate, and supplemented with Complete Protease Inhibitor (Roche). The obtained suspension was homogenized two times in a polytron homogenizer (Kinematica) at 20,000 rpm for 20 sec. The obtained cell disruption solution was clarified by centrifugation at 186,000×g for 60 min, and the supernatant was passed through Ni-NTA Superflow Cartridges (5 mL) (QUIAGEN). Furthermore, it was washed with 25 mM HEPES buffer (pH 7.5) containing 20 mM Imidazole and 0.3 M NaCl, and eluted with 25 mM HEPES buffer (pH 7.5) containing 250 mM Imidazol and 0.3 M NaCl. The eluate was concentrated by Amicon Ultra-15 (Nihon Millipore K.K.) having a fraction molecular weight of 50K. The obtained concentrate was subjected to gel filtration with 50 mM HEPES buffer (pH 7.5) containing 10 mM MgCl2, 2 mM dithiothreitol, 10 mM tripotassium citrate and 0.3 M NaCl by using HiLoad 26/60 Superdex200 prep grade gel filtration column (GE Healthcare) to give ACC1. The obtained ACC1 was cryopreserved at −80° C.
(3) Measurement of ACC1 Inhibitory Activity
ACC1 obtained in the above-mentioned (2) was diluted with an enzyme reaction buffer (50 mM HEPES (pH 7.5), 10 mM MgCl2, 10 mM Tripottasium Citrate, 2 mM Dithiothreitol, 0.001% Fatty acid free BSA) to a concentration of 0.2 μg/ml, and the mixture was added to each well of a 384 well assay plate by 10 μl. A test compound dissolved in dimethyl sulfoxide (DMSO) was diluted with an enzyme reaction buffer, and the resulting solution (5 μl) was added to each well. The mixture was incubated at room temperature for 60 min. Then, a substrate solution (50 mM KHCO3, 200 μM ATP, 200 μM Acetyl-CoA, 5 μl) was added to each well, and the mixture was reacted at room temperature for 30 min. The reaction was quenched by adding a reaction quenching liquid (1.3% formic acid, 0.2 μM Malonyl-^13C3-CoA) by 60 μL each to the obtained reaction mixtures (test compound addition group).
In addition, a reaction was performed in the same manner as above and without adding the test compound (test compound non-addition group). […]

HCT116 cells = experiment: Growth inhibitory activity on HCT116 cell (CellTiter-Glo); format: cell-based; conditions: Homo sapiens, HCT-116, 72 h; test compound 1 μM, 3 days; read-out: HCT116 cell proliferation inhibitory rate (%) at 1 μM
Experimental: The growth inhibitory activity of the compound on HCT116 cell was evaluated by the following method.
HCT116 cells were seeded in a 384 well blackplate at 900 cells/[…]/well, and maintained in an assay medium (RPMI medium (Wako) containing 2% fetal bovine serum, 50 Unit/mL penicillin and […] streptomycin (Invitrogen)). The next day, a test compound dissolved in dimethyl sulfoxide (DMSO) was diluted with the assay medium, and the obtained compound solution was added by […] to each well of a plate containing HCT116 cells, and incubated at 37° C., 5% CO2 (test compound addition group).
A similar reaction was performed without adding a test compound (test compound non-addition group).
Furthermore, a similar reaction was performed under the conditions without adding HCT116 cell and a test compound (control group).
After 3 days, […] of a CellTiter-Glo reagent (Promega KK) was added to the well, and the mixture was stirred for 10 min. Thereafter, the luminescence value of each well was measured by the EnVision™ multilabel counter (Perkin Elmer Inc.).
The HCT116 cell proliferation inhibitory rate (%) of the test compound was determined by the following calculation formula. (1−(luminescence of test compound addition group−luminescence of control group)÷(luminescence of test compound non-addition group−luminescence of control group))×100
The HCT116 cell proliferation inhibitory rates (%) of the test compound (1 μM) are shown below.

inhibition at 10 µM (Human ACC1): 96%
Structure (SMILES): C[C@@H](COc1cnc(-c2ccc(Oc3cccc(OCC4CC4)c3)cc2)o1)NC(N)=O [Example 82, 1-((2S)-1-((2-(4-(3-(cyclopropylmethoxy)phenoxy)phenyl)-1,3-oxazol-5-yl)oxy)propan-2-yl)urea]
inhibition at 1 µM (HCT116 cells): 33%
